# Experimental data as given in patent US20240158446A1, “CYCLIC COMPOUND HAVING SELECTIVE INHIBITORY ACTION ON KRAS OVER HRAS AND NRAS” (CHUGAI SEIYAKU KABUSHIKI KAISHA, priority 2021, published 2024).
# Read-outs that look alike come from different tables or passages of the source. Where a SMILES comes first, the peptide text is derived from it. Bridges are numbered along the chain shown (N, C = ends). [ ]: non-standard residue; d: D form. The star is where a group is joined. hPhe(3-Cl-4-CF3) = N[C@@H](CCc1ccc(C(F)(F)F)c(Cl)c1)C(=O)O; NPrPhe(4-CF3) = CCCN[C@@H](Cc1ccc(C(F)(F)F)cc1)C(=O)O; NMeGly(cPent) = CN[C@H](C(=O)O)C1CCCC1; cisHyp = O=C(O)[C@@H]1C[C@H](O)CN1; NMeD = CN[C@@H](CC(=O)O)C(=O)O; NMeL = CN[C@@H](CC(C)C)C(=O)O; Morpholide = C1CN(*)CCO1; Ac5c = NC1(C(=O)O)CCCC1; Sar = CNCC(=O)O
# How the values were obtained:
# [1] = target: GDP-bound KRAS wild-type protein (Homo sapiens, UniProt P01116); assay: Binding to KRAS by surface plasmon resonance (SPR), Single Cycle Kinetics; conditions: GDP-bound KRAS wild-type protein, read-out: KRAS KD
# [2] = target: GDP-bound HRAS wild-type protein (Homo sapiens, UniProt P01112); assay: Binding to HRAS by surface plasmon resonance (SPR), Single Cycle Kinetics; conditions: for HRAS/KRAS (ratio of KD value for HRAS to KD value for KRAS): SPR, GDP-bound HRAS wild-type protein vs GDP-bound KRAS wild-type protein; for HRAS/KRAS (ratio of KD value with respect to GDP-bound HRAS wild-type protein to KD value with respect to KRAS): SPR KD ratio HRAS/KRAS, class symbols
# [3] = tested on: human lung cancer strain NCI-H441;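 further: cell proliferation inhibition after four days measured by CellTiter-Glo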
# [4] = target: GDP-bound NRAS wild-type protein (Homo sapiens, UniProt P01111); assay: Binding to NRAS by surface plasmon resonance (SPR), Single Cycle Kinetics; conditions: for NRAS/KRAS (ratio of KD value for NRAS to KD value for KRAS): SPR, GDP-bound NRAS wild-type protein vs GDP-bound KRAS wild-type protein; for NRAS/KRAS (ratio of KD value with respect to GDP-bound NRAS wild-type protein to KD value with respect to KRAS): SPR KD ratio NRAS/KRAS, class symbols
# [5] = SPR, Single Cycle Kinetics, 1:1 binding model
# [6] = SPR Single Cycle Kinetics, 1:1 binding model
# Chain of GDP-bound KRAS wild-type protein (P01116 whole entry): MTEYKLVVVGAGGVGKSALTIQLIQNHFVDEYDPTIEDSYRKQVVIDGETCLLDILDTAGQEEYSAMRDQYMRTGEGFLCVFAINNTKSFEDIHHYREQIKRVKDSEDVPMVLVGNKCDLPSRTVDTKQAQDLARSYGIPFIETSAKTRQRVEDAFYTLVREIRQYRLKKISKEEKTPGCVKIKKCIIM
# Chain of GDP-bound HRAS wild-type protein (P01112 whole entry): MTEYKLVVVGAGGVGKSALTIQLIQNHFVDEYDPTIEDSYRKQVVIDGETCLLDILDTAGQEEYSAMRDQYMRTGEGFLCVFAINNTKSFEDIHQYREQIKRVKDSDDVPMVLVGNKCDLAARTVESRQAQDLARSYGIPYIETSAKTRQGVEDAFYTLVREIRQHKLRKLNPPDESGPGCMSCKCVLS
# Chain of GDP-bound NRAS wild-type protein (P01111 whole entry): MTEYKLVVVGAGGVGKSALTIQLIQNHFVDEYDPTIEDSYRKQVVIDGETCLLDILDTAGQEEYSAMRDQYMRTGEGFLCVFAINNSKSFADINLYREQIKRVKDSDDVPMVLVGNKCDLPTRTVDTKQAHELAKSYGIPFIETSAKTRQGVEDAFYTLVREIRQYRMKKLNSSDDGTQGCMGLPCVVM
"Kd [1, 5] [nM]",IC50 [3] [nM],"Kd [1, 6] [nM]","Kd ([1]; SPR, Single Cycle Kinetics) [nM]",Structure (SMILES),HRAS/KRAS (ratio of KD value for HRAS to KD value for KRAS) ([2]; KD ratio class),NRAS/KRAS (ratio of KD value for NRAS to KD value for KRAS) ([4]; KD ratio class),HRAS/KRAS (ratio of KD value with respect to GDP-bound HRAS wild-type protein to KD value with respect to KRAS) [2],NRAS/KRAS (ratio of KD value with respect to GDP-bound NRAS wild-type protein to KD value with respect to KRAS) [4],HRAS/KRAS (ratio of KD value for HRAS to KD value for KRAS) [2],NRAS/KRAS (ratio of KD value for NRAS to KD value for KRAS) [4]
0.23,20.8,–,–,CCO[C@@H]1C[C@H]2C(=O)NC3(CCC3)C(=O)N(C)[C@@H](C(CC)CC)C(=O)N(C)[C@H](C(=O)N(C)C)CC(=O)N(C)[C@@H](CC3CC3)C(=O)N[C@@H]([C@@H](C)CC)C(=O)N(C)CC(=O)N(C)[C@H]3C/C=C\CCN(C3=O)[C@@H](Cc3ccc(C(F)(F)F)cc3)C(=O)N(C)CC(=O)N[C@@H](CCc3cc(F)c(C(F)(F)F)c(F)c3)C(=O)N2C1 [PP1203],A (a compound having 10 or more and less than 20 is denoted as A),A (a compound having 10 or more and less than 20 is denoted as A),–,–,–,–
0.15,32.3,–,–,CCC[C@H]1C(=O)N[C@@H]([C@@H](C)CC)C(=O)N(C)CC(=O)N(C)[C@H]2C/C=C\CCN(C2=O)[C@@H](CC2CCCCC2)C(=O)N(C)CC(=O)N[C@@H](CCc2cc(F)c(C(F)(F)F)c(F)c2)C(=O)N2C[C@H](OCC)C[C@H]2C(=O)NC2(CCC2)C(=O)N(C)[C@@H](C2CCCC2)C(=O)N(C)[C@H](C(=O)N(C)C)CC(=O)N1C [PP1464],A (a compound having 10 or more and less than 20 is denoted as A),A (a compound having 10 or more and less than 20 is denoted as A),–,–,–,–
–,13.8,0.34,–,CCCOC[C@H]1C(=O)N[C@@H]([C@@H](C)CC)C(=O)N(C)CC(=O)N(C)[C@H]2C/C=C\CCN(C2=O)[C@@H](Cc2ccc(C)cc2)C(=O)N(C)CC(=O)N[C@@H](CCc2ccc(Cl)c(Cl)c2)C(=O)N2C[C@H](OCC)C[C@H]2C(=O)NC2(CC(C)(C)C2)C(=O)N(C)[C@@H](CC(C)(C)C)C(=O)N(C)[C@H](C(=O)N(C)C)CC(=O)N1C [PP2716],–,–,A (a compound having 10 or more and less than 20 is denoted as A),A (a compound having 10 or more and less than 20 is denoted as A),–,–
–,297,–,0.43,CC[C@H](C)[C@@H]1NC(=O)[C@H](CC)N(C)C(=O)C[C@@H](C(=O)N(C)C)N(C)C(=O)[C@H](C2CCCC2)N(C)C(=O)C2(CCC2)NC(=O)[C@@H]2CCN2C(=O)[C@H](CCc2cc(F)c(C(F)(F)F)c(F)c2)NC(=O)CN(C)C(=O)[C@H](Cc2ccc(C(F)(F)F)cc2)N2CC/C=C\C[C@@H](C2=O)N(C)C(=O)CN(C)C1=O [PP1139],–,–,–,–,A (a compound having 10 or more and less than 20 is denoted as A),A (a compound having 10 or more and less than 20 is denoted as A)
0.22,15.9,–,–,CCO[C@@H]1C[C@H]2C(=O)NC3(CCC3)C(=O)N(C)[C@@H](C(CC)CC)C(=O)N(C)[C@H](C(=O)N(C)C)CC(=O)N(C)[C@@H](CC(C)C)C(=O)N[C@@H]([C@@H](C)CC)C(=O)N(C)CC(=O)N(C)[C@H]3C/C=C\CCN(C3=O)[C@@H](Cc3ccc(C(F)(F)F)cc3)C(=O)N(C)CC(=O)N[C@@H](CCc3ccc(C(F)(F)F)c(OC)c3)C(=O)N2C1 [PP1209],A (a compound having 10 or more and less than 20 is denoted as A),AA (a compound having 20 or more is denoted as AA),–,–,–,–
–,43.8,0.53,–,CC[C@H](C)[C@@H]1NC(=O)[C@H](COC)N(C)C(=O)C[C@@H](C(=O)N(C)C)N(C)C(=O)[C@H](C2CCCC2)N(C)C(=O)C2(CC(C)(C)C2)NC(=O)[C@@H]2C[C@@H](OC3CCC3)CN2C(=O)[C@H](CCc2cc(F)c(C(F)(F)F)c(F)c2)NC(=O)CN(C)C(=O)[C@H](CC2CCC(F)(F)CC2)N2CC/C=C\C[C@@H](C2=O)N(C)C(=O)CN(C2CC2)C1=O [PP2622],–,–,B (a compound having 3 or more and less than 10 is denoted as B),A (a compound having 10 or more and less than 20 is denoted as A),–,–
–,10.9,–,0.12,C#CC[C@H]1C(=O)N[C@@H]([C@@H](C)CC)C(=O)N(C)CC(=O)N(C)[C@H]2C/C=C\CCN(C2=O)[C@@H](Cc2ccc(C(F)(F)F)cc2)C(=O)N(C)CC(=O)N[C@@H](CCc2cc(F)c(C(F)(F)F)c(F)c2)C(=O)N2C[C@@H](C)C[C@H]2C(=O)NC2(CCC2)C(=O)N(C)[C@@H](C2CCCC2)C(=O)N(C)[C@H](C(=O)N(C)CCC)CC(=O)N1C [PP2077],–,–,–,–,A (a compound having 10 or more and less than 20 is denoted as A),A (a compound having 10 or more and less than 20 is denoted as A)
–,41.6,–,0.9,CC[C@H](C)[C@@H]1NC(=O)[C@H](CC(C)C)N(C)C(=O)C[C@@H](C(=O)N2CCOCC2)N(C)C(=O)[C@H](C2CCCC2)N(C)C(=O)C2(CCC2)NC(=O)[C@@H]2[C@@H](OCC(F)F)CCN2C(=O)[C@H](CCc2cc(F)c(C(F)(F)F)c(F)c2)NC(=O)CN(C)C(=O)[C@H](Cc2ccc(C(F)(F)F)cc2)N2CCCCC[C@@H](C2=O)N(C)C(=O)CN(C)C1=O [PP1012],–,–,–,–,B (a compound having 3 or more and less than 10 is denoted as B),A (a compound having 10 or more and less than 20 is denoted as A)
–,7.9,0.035,–,CCCN1C(=O)CN(C)C(=O)CN(C)C(=O)[C@H]([C@@H](C)CC)NC(=O)[C@H](CC(C)C)N(C)C(=O)C[C@@H](C(=O)N2CCOCC2)N(C)C(=O)[C@H](C2CCCC2)N(C)C(=O)C2(CCCC2)NC(=O)[C@@H]2C[C@H](O)CN2C(=O)[C@H](CCc2ccc(C(F)(F)F)c(Cl)c2)NC(=O)CN(C)C(=O)[C@@H]1Cc1ccc(C(F)(F)F)cc1 [PP0240] ([NMeL]I[Sar][Sar][NPrPhe(4-CF3)][Sar][hPhe(3-Cl-4-CF3)][cisHyp][Ac5c][NMeGly(cPent)][NMeD]-Morpholide; lactam N-11),–,–,–,–,C (A compound having a KD ratio of 0.1 or more and less than 3 is denoted as C),B (a compound having 3 or more and less than 10 is denoted as B)
0.18,10.2,–,–,CCO[C@@H]1C[C@H]2C(=O)NC3(CCC3)C(=O)N(C)[C@@H](C3CCCC3)C(=O)N(C)[C@H](C(=O)N(C)C)CC(=O)N(C)[C@@H](CC(C)C)C(=O)N[C@@H]([C@@H](C)CC)C(=O)N(C)CC(=O)N(C)[C@H]3C/C=C\CCN(C3=O)[C@@H](Cc3ccc(C(F)(F)F)cc3)C(=O)N(C)CC(=O)N[C@@H](CCc3ccc(Cl)c(Cl)c3)C(=O)N2C1 [PP1251],A (a compound having 10 or more and less than 20 is denoted as A),AA (a compound having 20 or more is denoted as AA),–,–,–,–
–,75,0.81,–,CCC[C@H]1C(=O)N[C@@H]([C@@H](C)CC)C(=O)N(C)CC(=O)N(C)[C@H]2C/C=C\CCN(C2=O)[C@@H](Cc2ccc(C)cc2)C(=O)N(C)CC(=O)N[C@@H](CCc2ccc(Cl)c(Cl)c2)C(=O)N2C[C@H](OC3CCC3)C[C@H]2C(=O)NC2(CC(C)(C)C2)C(=O)N(C)[C@@H](C(CC)CC)C(=O)N(C)[C@H](C(=O)N(C)C)CC(=O)N1C [PP2644],–,–,A (a compound having 10 or more and less than 20 is denoted as A),AA (a compound having 20 or more is denoted as AA),–,–
